Source: paper PMC12903969, “Discovery of a Novel and Potent Kir4.1 Inhibitor as a Safe and Rapid‐Onset Antidepressant Agent in Mice” (Advanced Science, 2025)
Read-outs that look alike come from different tables or passages of the source.

Legend:
Kir4.1 = molecular target: T1, Kir4.1 (Homo sapiens, UniProt P78508); assay: Whole-cell patch clamp, Kir4.1 currents in transfected CHO-K1 cells; format: cell-based; conditions: for inhibition at 0.5 µM: CHO-K1, 0.5 μM; for inhibition at 1 µM: CHO-K1, 1 μM; for inhibition at 10 µM: CHO-K1, 10 μM; for IC50: whole-cell patch clamp
T1 construct: host or cells: CHO-K1
T1 sequence (P78508 1-379): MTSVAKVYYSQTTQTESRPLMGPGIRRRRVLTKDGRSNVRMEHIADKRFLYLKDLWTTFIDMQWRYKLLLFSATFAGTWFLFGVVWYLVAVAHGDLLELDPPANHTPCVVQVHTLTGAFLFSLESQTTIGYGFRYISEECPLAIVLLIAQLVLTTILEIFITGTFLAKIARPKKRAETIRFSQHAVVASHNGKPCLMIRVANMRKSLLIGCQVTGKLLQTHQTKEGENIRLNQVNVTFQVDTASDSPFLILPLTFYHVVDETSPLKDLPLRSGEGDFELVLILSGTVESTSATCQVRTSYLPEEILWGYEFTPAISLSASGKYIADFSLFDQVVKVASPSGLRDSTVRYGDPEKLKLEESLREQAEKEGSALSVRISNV
Method: Plasmids encoding WT human potassium channels Kir1.1, Kir2.1, Kir2.2, Kir4.1, and Kir4.2 were obtained from the Beijing Genomics Institute. All point mutations were constructed using the QuickChange II Site‐Directed Mutagenesis Kit (Stratagene) and subsequently verified by sequencing.
CHO‐K1 cells were maintained in DMEM/F12 growth medium containing 10% fetal bovine serum. Plasmids encoding the target genes (3600 ng) and enhanced green fluorescent protein (400 ng) were cotransfected into cells using Lipofectamine 2000 (Invitrogen) in accordance with the manufacturer's instructions. Cells were seeded onto poly‐d‐lysine (PDL)‐coated glass coverslips 1 h prior to electrophysiological recordings. All cells were cultured under standard conditions of 5% CO2 at 37 °C.
Whole‐cell patch‐clamp recordings were obtained either in transiently transfected CHO‐K1 cells or in primary cultured astrocytes at room temperature using standard patch‐clamp techniques with an Axopatch‐700B amplifier (Axon Instruments). The signals were filtered at 2 kHz and sampled at 20 kHz using the Digidata 1440A interface (Axon Instruments). The resistance of borosilicate glass pipettes was typically 2–4 MΩ when filled with the internal solution. Drug application was facilitated using a BPS perfusion system (ALA Scientific Instruments). Macroscopic currents generated by expressed potassium channels were recorded under the voltage‐clamp conditions with an internal pipette solution composed of (in mM): 140 KCl, 5 NaCl, 1 CaCl2, 1 MgCl2, 10 HEPES, and 10 EGTA, pH 7.2 adjusted with KOH. The external solution contained (in mM): 140 NaCl, 5 KCl, 2 CaCl2, 1 MgCl2, 10 glucose, and 10 HEPES, pH 7.4 adjusted with NaOH. Currents were elicited with a hyperpolarized voltage at −120 mV from the holding potential of −80 mV, followed by a ramp voltage depolarizing to +50 mV. Astrocytic resting membrane potentials were recorded under current‐clamp conditions (I = 0 pA) using standard internal and external solutions, determined immediately after achieving whole‐cell mode.

[1] = test system: MDA-MB-468 breast cancer cells; assay: Cytotoxicity test (CCK-8); format: cell-based
Method: Cytotoxicity of all the tested compounds was determined using the cell counting kit‐8 (CCK‐8) assay kit (Beyotime, Shanghai, China). Briefly, MDA‐MB‐468 was cultured in L15 medium and plated in 96‐well plates at a density of 12,000 cells per well for 24 h at 37 °C in a 5% CO2 incubator. The tested compounds were dissolved in DMSO and diluted with culture medium (DMSO final concentration < 0.4%). Then the cells were treated with compounds (0.41, 1.23, 3.70, 11.11, 33.33, 100.00 µM) for 48 h. After treatments, removal of the supernatant liquor, 100 µL of new media diluted CCK‐8 solution (10% CCK‐8) was added into each well and incubated at 37 °C for 2 h. The absorbance of the mixture was directly measured at 450 nm. The results are presented as a percentage of the control.

[2] = +50 mV, read-out: Kir4.1 Inhibition ± SD (%) at 0.5 μM, +50 mV
[3] = -120 mV, read-out: Kir4.1 Inhibition ± SD (%) at 0.5 μM, -120 mV
[4] = +50 mV, read-out: Kir4.1 Inhibition ± SD (%) at 1 μM, +50 mV
[5] = -120 mV, read-out: Kir4.1 Inhibition ± SD (%) at 1 μM, -120 mV
[6] = +50 mV, read-out: Kir4.1 Inhibition ± SD (%) at 10 μM, +50 mV
[7] = -120 mV, read-out: Kir4.1 Inhibition ± SD (%) at 10 μM, -120 mV
[8] = Homo sapiens, MDA-MB-468, MDA-MB-468 breast cancer cells, read-out: IC50 ± SD (μM) for MDA-MB-468 Inhibition

SMILES | inhibition at 1 µM (Kir4.1; [4]) | inhibition at 1 µM (Kir4.1; [5]) | inhibition at 10 µM (Kir4.1; [6]) | inhibition at 10 µM (Kir4.1; [7]) | IC50 [1, 8] | further results
CCn1c2ccccc2c2cc(Nc3ccnc(NCCCN4CCOCC4)n3)ccc21 [EHop-016, N ^4‐(9‐ethyl‐9H‐carbazole‐3‐yl)‐N ^2‐(3‐morpholinopropyl)pyrimidine‐2,4‐diamine, reference compound] | 76 ± 1.81% | 64.6 ± 5.93% | 96.6 ± 1.38% | 97 ± 1.86% |  | inhibition at 0.5 µM (Kir4.1; [2]): 17.2 ± 2.53%; inhibition at 0.5 µM (Kir4.1; [3]): 19 ± 3.75%; IC50 (Kir4.1; CHO cells transiently expressing Kir4.1, +50 mV, read-out: IC50 for Kir4.1 inhibition (+50 mV, outward currents)): 0.61 µM; IC50 (Kir4.1; CHO cells transiently expressing Kir4.1, −120 mV, read-out: IC50 for Kir4.1 inhibition (−120 mV, inward currents)): 0.74 µM; IC50 ([1]; Homo sapiens, MDA-MB-468, 48 h, CCK-8, 48 h, read-out: IC50 against MDA-MB-468 breast cancer cells): 5.98 ± 0.67 µM
Nc1ccnc(NCCCN2CCOCC2)n1 [JX3201, N^2-(3-morpholinopropyl)pyrimidine-2,4-diamine] |  |  | 3.02 ± 1.37% | 4.04 ± 7.66% | > 50 µM | 
c1cc(NC2CCCCC2)nc(NCCCN2CCOCC2)n1 [JX3202, N^4-cyclohexyl-N^2-(3-morpholinopropyl)pyrimidine-2,4-diamine] |  |  | 6.08 ± 3.06% | 2.79 ± 2.22% | 21.1 ± 2.08 µM | 
c1cc(NC23CC4CC(CC(C4)C2)C3)nc(NCCCN2CCOCC2)n1 [JX3203, N^4-((1s,3s)-adamantan-1-yl)-N^2-(3-morpholinopropyl)pyrimidine-2,4-diamine] |  |  |  |  |  | Kir4.1 Inhibition ± SD (%) at 10 μM, +50 mV (Kir4.1; 10 μM, +50 mV): 64.79 ± 0.85%; Kir4.1 Inhibition ± SD (%) at 10 μM, -120 mV (Kir4.1; 10 μM, -120 mV): 31.27 ± 3.29%; IC50 ([1]; MDA-MB-468 breast cancer cells, read-out: IC50 ± SD (μM) for MDA-MB-468 Inhibition): 22.2 ± 5.05 µM
c1ccc(Nc2ccnc(NCCCN3CCOCC3)n2)cc1 [JX3204, N^2-(3-morpholinopropyl)-N^4-phenylpyrimidine-2,4-diamine] |  |  | 5.73 ± 2.33% | 0.47 ± 2.29% | > 50 µM | 
c1ccc2cc(Nc3ccnc(NCCCN4CCOCC4)n3)ccc2c1 [JX3205, N^2-(3-morpholinopropyl)-N^4-(naphthalen-2-yl)pyrimidine-2,4-diamine] |  |  | 36.5 ± 10.2% | 8.88 ± 10.2% | 16.9 ± 1.65 µM | 
c1cc(Nc2ccc3[nH]ccc3c2)nc(NCCCN2CCOCC2)n1 [JX3206, N^4-(1H-indol-5-yl)-N^2-(3-morpholinopropyl)pyrimidine-2,4-diamine] |  |  | 38.4 ± 5.37% | 25.9 ± 1.96% | > 50 µM | 
O=c1c2ccccc2[nH]c2ccc(Nc3ccnc(NCCCN4CCOCC4)n3)cc12 [JX3208, 2-((2-((3-morpholinopropyl)amino)pyrimidin-4-yl)amino)acridin-9(10H)-one] |  |  | 1.43 ± 3.1% | 2.21 ± 9.84% | 16.8 ± 0.51 µM | 
c1ccc2nc3ccc(Nc4ccnc(NCCCN5CCOCC5)n4)cc3cc2c1 [JX3209, N^4-(acridin-2-yl)-N^2-(3-morpholinopropyl)pyrimidine-2,4-diamine] | -0.09 ± 6.09% | 5.58 ± 4.14% | 85.9 ± 3.9% | 86.4 ± 4.85% | 38.4 ± 4.21 µM | 
CC1(C)c2ccccc2-c2cc(Nc3ccnc(NCCCN4CCOCC4)n3)ccc21 [JX3210, N^4-(9,9-dimethyl-9H-fluoren-3-yl)-N^2-(3-morpholinopropyl)pyrimidine-2,4-diamine] | 62 ± 4.2% | 42.7 ± 2.34% | 93.2 ± 3.42% | 98.69 ± 0.66% | 2.66 ± 0.51 µM | 
O=C1c2ccccc2-c2cc(Nc3ccnc(NCCCN4CCOCC4)n3)ccc21 [JX3211, 3-((2-((3-morpholinopropyl)amino)pyrimidin-4-yl)amino)-9H-fluoren-9-one] | 28.8 ± 5.45% | 21.3 ± 8.61% | 89.2 ± 1.72% | 81 ± 2.36% | 29.8 ± 0.5 µM | 
c1ccc2c3c([nH]c2c1)CCC(Nc1ccnc(NCCCN2CCOCC2)n1)C3 (stereo not drawn) [JX3213, N^2-(3-morpholinopropyl)-N^4-(2,3,4,9-tetrahydro-1H-carbazol-3-yl)pyrimidine-2,4-diamine] | 55 ± 3.87% | 41.2 ± 4.03% | 79.1 ± 3.7% | 65.1 ± 4.67% | 17.7 ± 3.05 µM | 
C1=Nc2ccccc2Oc2ccc(Nc3ccnc(NCCCN4CCOCC4)n3)cc21 [JX3214, N^4-(dibenzo[b,f][1,4]oxazepin-2-yl)-N^2-(3-morpholinopropyl)pyrimidine-2,4-diamine] | 60.4 ± 6.32% | 56.6 ± 3.9% | 93.6 ± 4.14% | 94.52 ± 0.7% | 4.64 ± 0.41 µM | 
c1ccc2c(c1)ccc1[nH]c3ccc(Nc4ccnc(NCCCN5CCOCC5)n4)cc3c12 [JX3215, N^4-(7H-benzo[c]carbazol-10-yl)-N^2-(3-morpholinopropyl)pyrimidine-2,4-diamine] | 79.3 ± 3.86% | 71 ± 2.19% | 95.83 ± 0.42% | 89.8 ± 1.62% | 6.72 ± 0.28 µM | inhibition at 0.5 µM (Kir4.1; [2]): 39.5 ± 5.16%; inhibition at 0.5 µM (Kir4.1; [3]): 30.3 ± 5.33%
Cc1cnc(NCCCN2CCOCC2)nc1Nc1ccc2oc3ccccc3c2c1 [JX3216, N^4-(dibenzo[b,d]furan-2-yl)-5-methyl-N^2-(3-morpholinopropyl)pyrimidine-2,4-diamine] | 16.8 ± 8.93% | 9.55 ± 3.62% | 97.02 ± 0.67% | 92 ± 1.98% | 17.9 ± 0.65 µM | 
Fc1cnc(NCCCN2CCOCC2)nc1Nc1ccc2oc3ccccc3c2c1 [JX3217, N^4-(dibenzo[b,d]furan-2-yl)-5-fluoro-N^2-(3-morpholinopropyl)pyrimidine-2,4-diamine] |  |  | 11.9 ± 10.1% | 7.77 ± 6.65% | > 50 µM | 
COc1cnc(NCCCN2CCOCC2)nc1Nc1ccc2oc3ccccc3c2c1 [JX3218, N^4-(dibenzo[b,d]furan-2-yl)-5-methoxy-N^2-(3-morpholinopropyl)pyrimidine-2,4-diamine] | 1.15 ± 2.32% | 3.97 ± 2.03% | 86.8 ± 1.76% | 74.3 ± 4.51% | 13.3 ± 0.3 µM | 
